Laboratory results from publication PMC12472352, “The Activation of Cytochrome P450 2C9 Is Facilitated by the Coenzyme Forms of Vitamin B2” (Molecules, 2025).

Experiments:
[1] = target: T1, cytochrome P450 2C9 (CYP2C9) (Homo sapiens, UniProt P11712); assay: electrochemical diclofenac […]'-hydroxylation by purified CYP2C9 with FMN ([…]); relative activity […]; type: biochemical
[2] = target: T1, cytochrome P450 2C9 (CYP2C9); assay: amperometric titration (KM) on CYP2C9 + FMN electrode; […]'-hydroxydiclofenac formation by square-wave voltammetry; type: biochemical
[3] = target: T1, cytochrome P450 2C9 (CYP2C9); assay: UV-vis absorption spectral titration (Soret peak) of purified recombinant CYP2C9; also electrochemical activation; type: binding

T1 sequence (P11712 whole entry): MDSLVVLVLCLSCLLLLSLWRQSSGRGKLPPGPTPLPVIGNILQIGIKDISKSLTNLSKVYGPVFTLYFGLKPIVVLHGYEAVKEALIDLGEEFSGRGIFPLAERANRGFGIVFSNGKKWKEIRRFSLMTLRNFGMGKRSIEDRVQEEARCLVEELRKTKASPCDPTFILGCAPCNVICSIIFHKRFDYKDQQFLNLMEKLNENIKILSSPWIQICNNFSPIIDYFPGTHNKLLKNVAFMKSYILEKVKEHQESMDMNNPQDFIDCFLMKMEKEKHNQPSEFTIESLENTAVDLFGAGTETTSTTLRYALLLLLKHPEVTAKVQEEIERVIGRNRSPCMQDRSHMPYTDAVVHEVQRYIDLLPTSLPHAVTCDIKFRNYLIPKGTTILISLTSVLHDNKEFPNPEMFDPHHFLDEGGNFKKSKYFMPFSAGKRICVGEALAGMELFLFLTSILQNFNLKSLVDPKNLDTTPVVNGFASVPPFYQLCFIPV

SMILES: Cc1cc2nc3c(=O)[nH]c(=O)nc-3n(C[C@H](O)[C@H](O)[C@H](O)COP(=O)(O)O)c2cc1C [FMN]
- Relative Activity, % [1]: 113 ± 6%

SMILES: O=C(O)Cc1ccccc1Nc1c(Cl)cccc1Cl [diclofenac, 2-[2-(2,6-dichloroanilino)-phenyl]acetic acid]
- KM, M [2]: (5.49 ± 0.52) ×10^−5 M

SMILES: Cc1cc2nc3c(=O)[nH]c(=O)nc-3n(C[C@H](O)[C@H](O)[C@H](O)COP(=O)(O)OP(=O)(O)OC[C@H]3O[C@@H](n4cnc5c(N)ncnc54)[C@H](O)[C@@H]3O)c2cc1C [FAD]
- Kd [3]: 174 ± 52 µM
